Measurements from PubChem BioAssay AID330 (DTP/NCI, 2004).
Several values for one entry are separate records, joined by “and”; a condition that tells them apart may be missing. Equal values may be shown once. Inconclusive results and toxic doses are left out.

Test system: P388 leukemia ip, CD2F1 mice, survival T/C
Assay: NCI In Vivo Anticancer Drug Screen. Data for tumor model P388 Leukemia (intraperitoneal) in CD2F1 (CDF1) mice
Conditions: endpoint: median survival time, higher = longer survival
Method in brief: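 Mice carrying the transplanted tumor received test compound or vehicle. Survival was recorded in each group, and the value is the treated-group measurement divided by that of the vehicle-treated control group.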

[1] = dose: 50.0 mg/kg/injection, schedule: Q01DX005 (ip), vehicle: Klucel (hydroxypropylcellulose) (HPC)
[2] = dose: 100.0 mg/kg/injection, schedule: Q01DX005 (ip), vehicle: Klucel (hydroxypropylcellulose) (HPC)
[3] = dose: 200.0 mg/kg/injection, schedule: Q01DX005 (ip), vehicle: Klucel (hydroxypropylcellulose) (HPC)
[4] = dose: 12.5 mg/kg/injection, schedule: Q01DX005 (ip), vehicle: Klucel (hydroxypropylcellulose) (HPC)
[5] = dose: 25.0 mg/kg/injection, schedule: Q01DX005 (ip), vehicle: Klucel (hydroxypropylcellulose) (HPC)
[6] = dose: 50.0 mg/kg/injection, schedule: Q01DX009 (ip), vehicle: saline with Tween-80
[7] = dose: 100.0 mg/kg/injection, schedule: Q01DX009 (ip), vehicle: saline with Tween-80
[8] = dose: 60.0 mg/kg/injection, schedule: Q01DX005 (ip), vehicle: saline with Tween-80
[9] = dose: 120.0 mg/kg/injection, schedule: Q01DX005 (ip), vehicle: saline with Tween-80
[10] = dose: 240.0 mg/kg/injection, schedule: Q01DX005 (ip), vehicle: saline with Tween-80
[11] = dose: 60.0 mg/kg/injection, schedule: Q01DX005 (ip), vehicle: saline
[12] = dose: 120.0 mg/kg/injection, schedule: Q01DX005 (ip), vehicle: saline
[13] = dose: 240.0 mg/kg/injection, schedule: Q01DX005 (ip), vehicle: saline
[14] = dose: 100.0 mg/kg/injection, schedule: Q04DX002 (ip), vehicle: saline with Tween-80
[15] = dose: 25.0 mg/kg/injection, schedule: Q01DX009 (ip), vehicle: other
[16] = dose: 50.0 mg/kg/injection, schedule: Q01DX009 (ip), vehicle: other
[17] = dose: 100.0 mg/kg/injection, schedule: Q01DX009 (ip), vehicle: saline
[18] = dose: 60.0 mg/kg/injection, schedule: Q01DX005 (ip), vehicle: Klucel (hydroxypropylcellulose) (HPC)
[19] = dose: 120.0 mg/kg/injection, schedule: Q01DX005 (ip), vehicle: Klucel (hydroxypropylcellulose) (HPC)

CCOC(=O)CNCc1cccnc1
T/C (dose: 12.5 mg/kg/injection, schedule: Q04DX003 (ip), vehicle: saline): 103 % of control
T/C (dose: 25.0 mg/kg/injection, schedule: Q04DX003 (ip), vehicle: saline): 106 % of control and 94 % of control
T/C (dose: 50.0 mg/kg/injection, schedule: Q04DX003 (ip), vehicle: saline): 100 % of control and 103 % of control
T/C (dose: 100.0 mg/kg/injection, schedule: Q04DX003 (ip), vehicle: saline): 104 % of control and 94 % of control
T/C (dose: 200.0 mg/kg/injection, schedule: Q04DX003 (ip), vehicle: saline): 97 % of control

O=c1[nH]c(=O)c2nc3cc(Cl)ccc3nc2[nH]1
T/C [1]: 116 % of control
T/C [2]: 104 % of control
T/C [3]: 99 % of control

COCC1(O)C=CC(=O)O1 (configuration not stated)
T/C (dose: 50.0 mg/kg/injection, schedule: Q01DX005 (ip), vehicle: saline): 105 % of control

CC(C)[C@](O)(C(=O)OCC1CCN2CC[C@@H](O)C12)[C@H](C)O (some centres not stated)
T/C (dose: 40.6 mg/kg/injection, schedule: Q01DX009 (ip), vehicle: saline): 96 % of control
T/C (dose: 81.25 mg/kg/injection, schedule: Q01DX009 (ip), vehicle: saline): 102 % of control
T/C (dose: 162.5 mg/kg/injection, schedule: Q01DX009 (ip), vehicle: saline): 92 % of control and 98 % of control

CC(=C/c1cc(C)cc(=O)o1)/C=C/c1ccc(C)c(C)c1C
T/C [4]: 97 % of control
T/C [5]: 97 % of control
T/C [1]: 99 % of control and 88 % of control and 90 % of control
T/C [3]: 86 % of control and 88 % of control

O=[N+]([O-])c1ccc(-c2csc(-c3ccc(Br)cc3)n2)cc1
T/C (dose: 50.0 mg/kg/injection, schedule: Q01DX009 (ip), vehicle: Klucel (hydroxypropylcellulose) (HPC)): 87 % of control
T/C (dose: 100.0 mg/kg/injection, schedule: Q01DX009 (ip), vehicle: Klucel (hydroxypropylcellulose) (HPC)): 95 % of control
T/C (dose: 200.0 mg/kg/injection, schedule: Q01DX009 (ip), vehicle: Klucel (hydroxypropylcellulose) (HPC)): 92 % of control

N#Cc1ncc(C=P(c2ccccc2)(c2ccccc2)c2ccccc2)n(O)c1=N
T/C [6]: 101 % of control
T/C [7]: 104 % of control

O=C(O)c1c(Br)c(Br)c(Br)c(Br)c1-c1c2ccc(=O)cc-2oc2cc(O)ccc12
T/C [8]: 101 % of control
T/C [9]: 105 % of control
T/C [10]: 101 % of control

CCN(CC)CCCC(C)Nc1cc(OC)c2nc(C)ccc2c1OC (configuration not stated)
T/C (dose: 0.78 mg/kg/injection, schedule: Q01DX009 (ip), vehicle: saline): 97 % of control
T/C (dose: 1.56 mg/kg/injection, schedule: Q01DX009 (ip), vehicle: saline): 100 % of control
T/C (dose: 3.12 mg/kg/injection, schedule: Q01DX009 (ip), vehicle: saline): 99 % of control and 97 % of control

OCCC(CCN1CCOCC1)(c1ccccc1)C1(O)CCCC1 (configuration not stated)
T/C [11]: 95 % of control
T/C [12]: 98 % of control
T/C [13]: 92 % of control

O=S1(=O)CS(=O)(=O)OCCCO1
T/C (dose: 6.25 mg/kg/injection, schedule: Q01DX005 (ip), vehicle: Klucel (hydroxypropylcellulose) (HPC)): 151 % of control
T/C [4]: 169 % of control

CN=C(N)N/N=C(\c1ccc(F)cc1)c1ccccc1Cl
T/C (dose: 25.0 mg/kg/injection, schedule: Q04DX002 (ip), vehicle: saline with Tween-80): 101 % of control
T/C (dose: 50.0 mg/kg/injection, schedule: Q04DX002 (ip), vehicle: saline with Tween-80): 100 % of control
T/C [14]: 98 % of control

CCOC(=O)N(NC(=O)c1ccc(N(CCCl)CCCl)cc1)C(C)=O
T/C (dose: 3.13 mg/kg/injection, schedule: Q01DX009 (ip), vehicle: other): 103 % of control
T/C (dose: 6.25 mg/kg/injection, schedule: Q01DX009 (ip), vehicle: other): 100 % of control
T/C (dose: 12.5 mg/kg/injection, schedule: Q01DX009 (ip), vehicle: other): 101 % of control
T/C [15]: 111 % of control
T/C [16]: 111 % of control and 114 % of control
T/C (dose: 88.0 mg/kg/injection, schedule: Q01DX009 (ip), vehicle: other): 110 % of control
T/C (dose: 133.0 mg/kg/injection, schedule: Q01DX009 (ip), vehicle: other): 112 % of control

C[C@H]1CC(c2ccc(Cl)cc2)[C@@H](c2ccccc2)C(=O)O1 (some centres not stated)
T/C (dose: 100.0 mg/kg/injection, schedule: Q04DX003 (ip), vehicle: Klucel (hydroxypropylcellulose) (HPC)): 92 % of control
T/C (dose: 200.0 mg/kg/injection, schedule: Q04DX003 (ip), vehicle: Klucel (hydroxypropylcellulose) (HPC)): 93 % of control
T/C (dose: 400.0 mg/kg/injection, schedule: Q04DX003 (ip), vehicle: Klucel (hydroxypropylcellulose) (HPC)): 92 % of control

CC12CCC(C(=O)C1=O)C2(C)C (configuration not stated)
T/C [6]: 102 % of control
T/C [7]: 93 % of control
T/C (dose: 200.0 mg/kg/injection, schedule: Q01DX009 (ip), vehicle: saline with Tween-80): 95 % of control
T/C (dose: 400.0 mg/kg/injection, schedule: Q01DX009 (ip), vehicle: saline with Tween-80): 97 % of control

O=C(NCCS(=O)(=O)O)C1CCCN1 (configuration not stated)
T/C [11]: 100 % of control
T/C [12]: 100 % of control
T/C [13]: 99 % of control

CN(c1ccccc1)c1cc2nc3ccccc3nc2cc1O
T/C (dose: 50.0 mg/kg/injection, schedule: Q01DX009 (ip), vehicle: saline): 98 % of control
T/C [17]: 91 % of control

COc1ccc(CCNC(=O)Cc2ccc(OC)c(OCc3ccccc3)c2)cc1OC
T/C [15]: 95 % of control
T/C [16]: 95 % of control
T/C (dose: 100.0 mg/kg/injection, schedule: Q01DX009 (ip), vehicle: other): 89 % of control
T/C (dose: 200.0 mg/kg/injection, schedule: Q01DX009 (ip), vehicle: other): 86 % of control
T/C (dose: 400.0 mg/kg/injection, schedule: Q01DX009 (ip), vehicle: other): 89 % of control

CC(/C=N\Nc1ccc(Cl)cc1)=N/NC(=O)C[N+](C)(C)C
T/C (dose: 100.0 mg/kg/injection, schedule: Q04DX002 (ip), vehicle: saline): 101 % of control
T/C (dose: 200.0 mg/kg/injection, schedule: Q04DX002 (ip), vehicle: saline): 100 % of control
T/C (dose: 400.0 mg/kg/injection, schedule: Q04DX002 (ip), vehicle: saline): 92 % of control

N#Cc1c(=O)n(CCO)nc2c3ccccc3c3ccccc3c12
T/C [14]: 97 % of control
T/C (dose: 200.0 mg/kg/injection, schedule: Q04DX002 (ip), vehicle: saline with Tween-80): 88 % of control

CCC(c1ccc(C(C)=O)c(O)c1)C(CC)c1ccc(C(C)=O)c(O)c1 (configuration not stated)
T/C [8]: 97 % of control
T/C [9]: 90 % of control
T/C [10]: 88 % of control

CC(C)(C)c1cc(C[N+](C)(C)C)c(O)c(C(C)(C)C)c1
T/C (dose: 12.5 mg/kg/injection, schedule: Q01DX005 (ip), vehicle: distilled water + alcohol): 95 % of control
T/C (dose: 25.0 mg/kg/injection, schedule: Q01DX005 (ip), vehicle: distilled water + alcohol): 96 % of control
T/C (dose: 50.0 mg/kg/injection, schedule: Q01DX005 (ip), vehicle: distilled water + alcohol): 101 % of control and 104 % of control

CN(C)C1=Nc2ccc(Cl)cc2C(c2ccccc2)=NC1O (configuration not stated)
T/C [18]: 95 % of control
T/C [19]: 98 % of control
T/C (dose: 240.0 mg/kg/injection, schedule: Q01DX005 (ip), vehicle: Klucel (hydroxypropylcellulose) (HPC)): 100 % of control

Cc1ncn[nH]1
T/C [17]: 103 % of control
T/C (dose: 200.0 mg/kg/injection, schedule: Q01DX009 (ip), vehicle: saline): 106 % of control
T/C (dose: 400.0 mg/kg/injection, schedule: Q01DX009 (ip), vehicle: saline): 100 % of control

C=C=CN1C(C)=CC(=C2C(=O)c3ccccc3C2=O)C=C1C
T/C [5]: 99 % of control and 97 % of control
T/C [1]: 104 % of control and 92 % of control and 96 % of control
T/C [18]: 87 % of control
T/C [2]: 117 % of control and 96 % of control and 97 % of control
T/C [19]: 97 % of control
T/C [3]: 106 % of control and 93 % of control
